According to ChEMBL document CHEMBL3885881, “DrugMatrix”:

Species: Rattus norvegicus
Test: DrugMatrix - Regimen: Daily Repeat
Format: toxicity, organism-based, Sprague-Dawley
Parameters: regimen Daily Repeat, gender Male, age 6-8 weeks
Conditions: in vivo, sc, route subcutaneous, […]
[1] = 0 mg/kg, 72 h, tissue Blood, dose level Control, time 3 day
[2] = 0 mg/kg, 72 h, tissue Plasma, dose level Control, time 3 day
[3] = 0 mg/kg, 120 h, tissue Blood, dose level Control, time 5 day
[4] = 0 mg/kg, 120 h, tissue Plasma, dose level Control, time 5 day
[5] = 10 mg/kg, 72 h, tissue Blood, dose level Low, time 3 day
[6] = 10 mg/kg, 72 h, tissue Plasma, dose level Low, time 3 day
[7] = 10 mg/kg, 120 h, tissue Blood, dose level Low, time 5 day

Question: COBALT(II) ACETYLACETONATE was tested. Which “ABSOLUTE BASOPHIL” value [1] did it give?
Answer: Its value is 0 CELLS/uL.

Question: What about the “ABSOLUTE EOSINOPHIL” value [1] of the same substance?
Answer: Its value is 42.67 CELLS/uL.

Question: What about the “ABSOLUTE LYMPHOCYTE” value [1] of the same substance?
Answer: Its value is 10202 CELLS/uL.

Question: What about the “ABSOLUTE MONOCYTE” value [1] of the same substance?
Answer: Its value is 261.5 CELLS/uL.

Question: What about the “ABSOLUTE SEGMENTED NEUTROPHIL” value [1] of the same substance?
Answer: The value was 2193.83 CELLS/uL.

Question: And the BASOPHIL [1]?
Answer: The BASOPHIL was 0%.

Question: What about the EOSINOPHIL [1] of the same substance?
Answer: Its EOSINOPHIL is 0.33%.

Question: What about the “ERYTHROCYTE COUNT” value [1] of the same substance?
Answer: Its value is 5.63 x10E6/uL.

Question: And the HEMATOCRIT [1]?
Answer: Its HEMATOCRIT is 35.35%.

Question: What about the HEMOGLOBIN [1] of the same substance?
Answer: Its HEMOGLOBIN is 13.07 G/DL.

Question: And the “LEUKOCYTE COUNT” value [1]?
Answer: Its value is 12.7 x10E3/uL.

Question: And the LYMPHOCYTE [1]?
Answer: The LYMPHOCYTE was 81.17%.

Question: And the “MEAN CORPUSCULAR HEMOGLOBIN” value [1]?
Answer: Its value is 23.23 pg.

Question: And the “MEAN CORPUSCULAR HEMOGLOBIN CONCENTRATION” value [1]?
Answer: The value was 36.97 G/DL.

Question: And the MONOCYTE [1]?
Answer: Its MONOCYTE is 2%.

Question: What about the “NUCLEATED RED BLOOD CELLS” value [1] of the same substance?
Answer: Its value is 0 /100WBC.

Question: What about the “PLATELET COUNT” value [1] of the same substance?
Answer: The value was 1180.33 x10E3/uL.

Question: And the “ALANINE AMINOTRANSFERASE” value [2]?
Answer: The value was 48.67 u/L.

Question: What about the “ALKALINE PHOSPHATASE” value [2] of the same substance?
Answer: The value was 360.67 u/L.

Question: What about the “ASPARTATE AMINOTRANSFERASE” value [2] of the same substance?
Answer: The value was 85.5 u/L.

Question: And the “BLOOD UREA NITROGEN” value [2]?
Answer: The value was 17.83 mg/dL.

Question: And the “CARBON DIOXIDE” value [2]?
Answer: The value was 26.17 mmol/L.

Question: What about the CHOLESTEROL [2] of the same substance?
Answer: Its CHOLESTEROL is 71 mg/dL.

Question: And the “CREATINE PHOSPHOKINASE” value [2]?
Answer: Its value is 515.17 u/L.

Question: And the CREATININE [2]?
Answer: Its CREATININE is 0.22 mg/dL.

Question: And the GLUCOSE [2]?
Answer: Its GLUCOSE is 192.5 mg/dL.

Question: And the “LACTATE DEHYDROGENASE” value [2]?
Answer: The value was 214.67 u/L.

Question: What about the LIPASE [2] of the same substance?
Answer: The LIPASE was 8.5 u/L.

Question: What about the PHOSPHORUS [2] of the same substance?
Answer: The PHOSPHORUS was 12.95 mg/dL.

Question: And the POTASSIUM [2]?
Answer: Its POTASSIUM is 6.39 MEQ/L.

Question: What about the “TOTAL BILIRUBIN” value [2] of the same substance?
Answer: The value was 0.18 mg/dL.

Question: And the “TOTAL PROTEIN” value [2]?
Answer: Its value is 5.95 G/DL.

Question: What about the “ABSOLUTE BASOPHIL” value [3] of the same substance?
Answer: Its value is 0 CELLS/uL.

Question: What about the “ABSOLUTE EOSINOPHIL” value [3] of the same substance?
Answer: Its value is 188.5 CELLS/uL.

Question: What about the “ABSOLUTE LYMPHOCYTE” value [3] of the same substance?
Answer: The value was 12360.83 CELLS/uL.

Question: And the “ABSOLUTE MONOCYTE” value [3]?
Answer: Its value is 64.33 CELLS/uL.

Question: And the “ABSOLUTE SEGMENTED NEUTROPHIL” value [3]?
Answer: Its value is 1986.33 CELLS/uL.

Question: What about the BASOPHIL [3] of the same substance?
Answer: The BASOPHIL was 0%.

Question: And the “ERYTHROCYTE COUNT” value [3]?
Answer: Its value is 5.52 x10E6/uL.

Question: And the HEMOGLOBIN [3]?
Answer: Its HEMOGLOBIN is 13.25 G/DL.

Question: And the “LEUKOCYTE COUNT” value [3]?
Answer: Its value is 14.6 x10E3/uL.

Question: What about the LYMPHOCYTE [3] of the same substance?
Answer: Its LYMPHOCYTE is 84.5%.

Question: What about the “MEAN CORPUSCULAR HEMOGLOBIN” value [3] of the same substance?
Answer: Its value is 24.05 pg.

Question: What about the “MEAN CORPUSCULAR HEMOGLOBIN CONCENTRATION” value [3] of the same substance?
Answer: Its value is 36.98 G/DL.

Question: What about the “MEAN CORPUSCULAR VOLUME” value [3] of the same substance?
Answer: Its value is 64.97 fL.

Question: What about the MONOCYTE [3] of the same substance?
Answer: Its MONOCYTE is 0.5%.

Question: And the NEUTROPHIL [3]?
Answer: The NEUTROPHIL was 13.67%.

Question: What about the “NUCLEATED RED BLOOD CELLS” value [3] of the same substance?
Answer: The value was 0 /100WBC.

Question: What about the “PLATELET COUNT” value [3] of the same substance?
Answer: The value was 1297.83 x10E3/uL.

Question: And the “ALANINE AMINOTRANSFERASE” value [4]?
Answer: The value was 51.17 u/L.

Question: What about the “ALKALINE PHOSPHATASE” value [4] of the same substance?
Answer: Its value is 393.17 u/L.

Question: What about the “ASPARTATE AMINOTRANSFERASE” value [4] of the same substance?
Answer: Its value is 111 u/L.

Question: What about the “BLOOD UREA NITROGEN” value [4] of the same substance?
Answer: The value was 18.17 mg/dL.

Question: What about the “CARBON DIOXIDE” value [4] of the same substance?
Answer: Its value is 25 mmol/L.

Question: What about the CHOLESTEROL [4] of the same substance?
Answer: The CHOLESTEROL was 65.5 mg/dL.

Question: What about the “CREATINE PHOSPHOKINASE” value [4] of the same substance?
Answer: The value was 911.5 u/L.

Question: And the CREATININE [4]?
Answer: Its CREATININE is 0.21 mg/dL.

Question: What about the GLUCOSE [4] of the same substance?
Answer: Its GLUCOSE is 183 mg/dL.

Question: What about the “LACTATE DEHYDROGENASE” value [4] of the same substance?
Answer: Its value is 189 u/L.

Question: And the LIPASE [4]?
Answer: Its LIPASE is 8.33 u/L.

Question: What about the PHOSPHORUS [4] of the same substance?
Answer: The PHOSPHORUS was 12.78 mg/dL.

Question: What about the POTASSIUM [4] of the same substance?
Answer: Its POTASSIUM is 6.05 MEQ/L.

Question: What about the “TOTAL BILIRUBIN” value [4] of the same substance?
Answer: The value was 0.25 mg/dL.

Question: What about the “TOTAL PROTEIN” value [4] of the same substance?
Answer: The value was 5.83 G/DL.

Question: What about the “URIC ACID” value [4] of the same substance?
Answer: The value was 1.58 mg/dL.

Question: What about the “ABSOLUTE BASOPHIL” value [5] of the same substance?
Answer: The value was 0 CELLS/uL.

Question: And the “ABSOLUTE EOSINOPHIL” value [5]?
Answer: The value was 159.33 CELLS/uL.

Question: And the “ABSOLUTE MONOCYTE” value [5]?
Answer: Its value is 0 CELLS/uL.

Question: What about the “ABSOLUTE SEGMENTED NEUTROPHIL” value [5] of the same substance?
Answer: Its value is 812 CELLS/uL.

Question: What about the BASOPHIL [5] of the same substance?
Answer: The BASOPHIL was 0%.

Question: And the “ERYTHROCYTE COUNT” value [5]?
Answer: The value was 5.08 x10E6/uL.

Question: What about the HEMATOCRIT [5] of the same substance?
Answer: The HEMATOCRIT was 32.57%.

Question: What about the HEMOGLOBIN [5] of the same substance?
Answer: Its HEMOGLOBIN is 12.17 G/DL.

Question: What about the “LEUKOCYTE COUNT” value [5] of the same substance?
Answer: Its value is 12.37 x10E3/uL.

Question: What about the LYMPHOCYTE [5] of the same substance?
Answer: Its LYMPHOCYTE is 92%.

Question: What about the “MEAN CORPUSCULAR HEMOGLOBIN” value [5] of the same substance?
Answer: Its value is 23.97 pg.

Question: And the “MEAN CORPUSCULAR HEMOGLOBIN CONCENTRATION” value [5]?
Answer: The value was 37.37 G/DL.

Question: What about the MONOCYTE [5] of the same substance?
Answer: Its MONOCYTE is 0%.

Question: And the NEUTROPHIL [5]?
Answer: The NEUTROPHIL was 6.67%.

Question: What about the “NUCLEATED RED BLOOD CELLS” value [5] of the same substance?
Answer: The value was 0 /100WBC.

Question: And the “PLATELET COUNT” value [5]?
Answer: The value was 1184.33 x10E3/uL.

Question: What about the “ALANINE AMINOTRANSFERASE” value [6] of the same substance?
Answer: Its value is 47.67 u/L.

Question: And the “ALKALINE PHOSPHATASE” value [6]?
Answer: The value was 375.67 u/L.

Question: And the “ASPARTATE AMINOTRANSFERASE” value [6]?
Answer: The value was 80 u/L.

Question: What about the “CARBON DIOXIDE” value [6] of the same substance?
Answer: The value was 27 mmol/L.

Question: And the CHOLESTEROL [6]?
Answer: The CHOLESTEROL was 76 mg/dL.

Question: What about the “CREATINE PHOSPHOKINASE” value [6] of the same substance?
Answer: Its value is 254.67 u/L.

Question: What about the CREATININE [6] of the same substance?
Answer: The CREATININE was 0.19 mg/dL.

Question: And the GLUCOSE [6]?
Answer: Its GLUCOSE is 171.67 mg/dL.

Question: And the “LACTATE DEHYDROGENASE” value [6]?
Answer: Its value is 104.33 u/L.

Question: And the LIPASE [6]?
Answer: Its LIPASE is 8.33 u/L.

Question: What about the PHOSPHORUS [6] of the same substance?
Answer: Its PHOSPHORUS is 11.6 mg/dL.

Question: What about the “TOTAL BILIRUBIN” value [6] of the same substance?
Answer: Its value is 0.13 mg/dL.

Question: What about the “TOTAL PROTEIN” value [6] of the same substance?
Answer: Its value is 5.73 G/DL.

Question: What about the “ABSOLUTE BASOPHIL” value [7] of the same substance?
Answer: Its value is 0 CELLS/uL.

Question: And the “ABSOLUTE EOSINOPHIL” value [7]?
Answer: The value was 119 CELLS/uL.
